Data: article PMC11025159 (Journal of Translational Medicine, 2024)

Legend:
[1] = target: T1, JAK1 (Homo sapiens, UniProt P23458); assay: Cell-free kinase assay JAK1; format: biochemical
T1 construct: purchased Promega Corporation VA7207
Procedure: (§1) The cell-free kinase assays of small molecules were determined by following the manufacturer-recommended protocols. Different concentrations in triplicate were used to determine the IC50 value of the hit molecules (active molecules). For data analysis, GraphPad Prism V9.5 Software and a sigmoidal dose–response (variable slope) equation were used. Each value represents an average of three replicates per concentration.

[2] = system: HEK-293; assay: MTT cell viability assay HEK-293; format: cell-based, human
Procedure: (§2) Cell viability was evaluated using an MTT colorimetric assay. Cells were seeded (10^5 cells/mL) in 96-well plates and allowed to grow overnight at 37 ℃ with 5% CO2 in a cell-culture incubator. On the following day, the cells were treated with small molecules at different concentrations (0.2–10 micro-molar) or vehicle (DMSO). Cells were then further incubated for 48 h.

[3] = system: MCF-7; assay: MTT cell viability assay MCF-7; format: cell-based, human; details: Homo sapiens, MCF7, 48 h
Procedure: as §2

[4] = target: T2, PI-3-K γ (Homo sapiens, UniProt P48736); assay: Cell-free kinase assay PI-3-K γ; format: biochemical
T2 construct: purchased Promega Corporation V1690
Procedure: as §1

[5] = rat, in vivo
[6] = Pharmacokinetic study, dermal application; format: in vivo, C57BL/6 mice; details: male, C57BL/6, mouse, topical or ocular; topical dose 30 mg/kg, plasma
Procedure: The male C57BL/6 mice were used to study the pharmacokinetics of MJ04. MJ04 was dissolved in vehicle suspensions for dermal application (30 mg/kg). Blood samples were collected at different time points: 0 min, 30 min, 1 h, 2 h, 4 h, 8 h, 12 h, and 24 h after dermal application. Plasma samples were separated by centrifugation of whole blood and stored at less than − 70 °C until bioanalysis. The concentration of MJ04 in plasma was detected using LC–MS/MS (Agilent Technologies, 1260 Infinity system). The pharmacokinetic parameters were processed by DAS (version 3.2.8) software.

[7] = target: T3, PI-3-K δ (Homo sapiens, UniProt O00329); assay: Cell-free kinase assay PI-3-K δ; format: biochemical; details: Km ATP
T3 construct: purchased Promega Corporation V1690
Procedure: as §1

[8] = target: T4, hERG channels (Homo sapiens, UniProt Q12809); assay: hERG channel assay, whole cell patch clamp; format: cell-based
T4 construct: host or cells: HEK293

[9] = system: Mia PaCa-2; assay: MTT cell viability assay Mia PaCa-2; format: cell-based, human; details: Homo sapiens, MIA PaCa-2, 48 h
Procedure: as §2

[10] = target: T5, JAK3 (Homo sapiens, UniProt P52333); assay: Cell-free kinase assay JAK3; format: biochemical
T5 construct: purchased Promega Corporation V3701
T5 sequence (P52333 1-1124): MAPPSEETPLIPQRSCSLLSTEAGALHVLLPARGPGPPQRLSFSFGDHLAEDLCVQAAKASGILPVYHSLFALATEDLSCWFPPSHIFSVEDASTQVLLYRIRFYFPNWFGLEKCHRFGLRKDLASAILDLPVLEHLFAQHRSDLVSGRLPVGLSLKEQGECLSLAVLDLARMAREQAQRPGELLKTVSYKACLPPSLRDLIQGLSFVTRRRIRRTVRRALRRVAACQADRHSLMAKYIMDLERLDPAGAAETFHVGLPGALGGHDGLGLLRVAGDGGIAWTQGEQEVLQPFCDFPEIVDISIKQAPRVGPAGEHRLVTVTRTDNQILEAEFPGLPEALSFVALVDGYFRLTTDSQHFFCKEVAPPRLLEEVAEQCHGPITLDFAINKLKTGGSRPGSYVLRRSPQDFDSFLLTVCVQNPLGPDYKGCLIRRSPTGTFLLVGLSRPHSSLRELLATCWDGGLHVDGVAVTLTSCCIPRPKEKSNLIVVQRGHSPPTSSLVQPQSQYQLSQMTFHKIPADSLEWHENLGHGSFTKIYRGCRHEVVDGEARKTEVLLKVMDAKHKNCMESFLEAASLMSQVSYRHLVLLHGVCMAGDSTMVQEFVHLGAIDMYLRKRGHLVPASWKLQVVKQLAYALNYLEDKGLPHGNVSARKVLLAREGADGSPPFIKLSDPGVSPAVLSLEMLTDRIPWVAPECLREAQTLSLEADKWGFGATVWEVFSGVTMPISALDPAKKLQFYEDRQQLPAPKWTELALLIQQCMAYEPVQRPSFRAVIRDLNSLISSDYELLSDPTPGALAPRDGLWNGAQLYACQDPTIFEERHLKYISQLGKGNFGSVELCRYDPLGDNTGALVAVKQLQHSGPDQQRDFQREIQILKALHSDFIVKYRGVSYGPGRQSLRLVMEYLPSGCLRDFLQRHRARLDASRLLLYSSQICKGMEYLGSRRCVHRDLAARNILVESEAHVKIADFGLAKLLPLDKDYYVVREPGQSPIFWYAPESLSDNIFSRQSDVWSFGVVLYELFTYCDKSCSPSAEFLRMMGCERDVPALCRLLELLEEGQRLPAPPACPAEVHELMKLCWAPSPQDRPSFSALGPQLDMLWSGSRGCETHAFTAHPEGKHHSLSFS
Procedure: as §1

T1 sequence (P23458 whole entry): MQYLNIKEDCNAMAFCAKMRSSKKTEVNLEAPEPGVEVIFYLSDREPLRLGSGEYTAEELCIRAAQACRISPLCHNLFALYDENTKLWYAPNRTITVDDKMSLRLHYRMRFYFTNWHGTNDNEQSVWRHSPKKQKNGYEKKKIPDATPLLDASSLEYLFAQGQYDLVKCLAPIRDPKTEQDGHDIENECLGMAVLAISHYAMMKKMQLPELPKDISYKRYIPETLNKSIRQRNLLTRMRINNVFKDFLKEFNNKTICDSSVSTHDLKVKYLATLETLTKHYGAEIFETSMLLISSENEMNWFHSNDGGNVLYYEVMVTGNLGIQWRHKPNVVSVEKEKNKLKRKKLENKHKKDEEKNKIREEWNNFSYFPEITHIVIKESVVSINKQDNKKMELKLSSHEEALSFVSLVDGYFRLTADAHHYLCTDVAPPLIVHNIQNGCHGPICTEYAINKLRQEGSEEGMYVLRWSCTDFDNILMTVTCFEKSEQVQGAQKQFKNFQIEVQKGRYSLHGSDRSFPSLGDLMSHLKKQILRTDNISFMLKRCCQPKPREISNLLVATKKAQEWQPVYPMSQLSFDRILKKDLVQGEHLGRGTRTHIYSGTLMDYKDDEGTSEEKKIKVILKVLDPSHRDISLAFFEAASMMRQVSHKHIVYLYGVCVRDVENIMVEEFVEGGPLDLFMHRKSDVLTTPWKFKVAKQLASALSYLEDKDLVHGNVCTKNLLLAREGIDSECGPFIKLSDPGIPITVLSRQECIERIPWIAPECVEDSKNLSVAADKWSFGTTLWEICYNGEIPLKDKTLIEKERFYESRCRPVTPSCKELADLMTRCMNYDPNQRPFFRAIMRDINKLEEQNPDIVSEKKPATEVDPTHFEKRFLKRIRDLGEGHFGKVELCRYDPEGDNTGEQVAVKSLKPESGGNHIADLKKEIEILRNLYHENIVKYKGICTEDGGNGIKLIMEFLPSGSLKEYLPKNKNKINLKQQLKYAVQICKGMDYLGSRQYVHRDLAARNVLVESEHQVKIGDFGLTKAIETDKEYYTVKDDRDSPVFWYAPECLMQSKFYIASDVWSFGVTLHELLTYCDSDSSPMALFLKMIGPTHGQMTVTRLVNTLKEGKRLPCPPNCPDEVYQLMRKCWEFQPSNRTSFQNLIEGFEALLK
T2 sequence (P48736 whole entry): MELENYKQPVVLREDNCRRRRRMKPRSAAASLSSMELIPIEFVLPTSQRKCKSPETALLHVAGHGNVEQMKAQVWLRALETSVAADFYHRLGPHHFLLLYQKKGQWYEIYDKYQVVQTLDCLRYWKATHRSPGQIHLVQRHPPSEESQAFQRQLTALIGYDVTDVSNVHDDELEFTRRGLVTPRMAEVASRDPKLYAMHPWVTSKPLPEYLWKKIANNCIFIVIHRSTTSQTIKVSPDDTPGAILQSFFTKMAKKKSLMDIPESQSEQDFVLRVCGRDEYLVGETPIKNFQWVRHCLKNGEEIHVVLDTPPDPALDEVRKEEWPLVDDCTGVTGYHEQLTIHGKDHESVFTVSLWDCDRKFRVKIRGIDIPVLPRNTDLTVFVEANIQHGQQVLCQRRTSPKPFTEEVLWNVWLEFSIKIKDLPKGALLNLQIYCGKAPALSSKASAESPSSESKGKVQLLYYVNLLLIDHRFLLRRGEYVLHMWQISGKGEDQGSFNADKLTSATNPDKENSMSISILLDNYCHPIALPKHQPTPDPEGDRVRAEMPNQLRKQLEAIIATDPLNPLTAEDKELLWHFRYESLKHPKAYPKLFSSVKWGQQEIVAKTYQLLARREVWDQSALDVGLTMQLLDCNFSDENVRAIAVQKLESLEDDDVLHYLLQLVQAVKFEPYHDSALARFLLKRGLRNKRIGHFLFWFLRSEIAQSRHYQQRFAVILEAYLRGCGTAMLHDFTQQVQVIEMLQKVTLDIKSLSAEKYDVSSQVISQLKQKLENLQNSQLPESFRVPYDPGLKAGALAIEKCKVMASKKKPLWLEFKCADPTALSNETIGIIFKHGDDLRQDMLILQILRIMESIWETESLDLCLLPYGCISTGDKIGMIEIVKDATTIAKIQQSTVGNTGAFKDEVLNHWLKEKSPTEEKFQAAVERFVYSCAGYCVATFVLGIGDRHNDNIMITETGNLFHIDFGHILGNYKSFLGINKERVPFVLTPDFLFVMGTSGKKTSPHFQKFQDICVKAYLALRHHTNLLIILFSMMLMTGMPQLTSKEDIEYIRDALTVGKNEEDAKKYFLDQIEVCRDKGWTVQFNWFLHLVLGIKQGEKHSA
T4 sequence (Q12809 whole entry): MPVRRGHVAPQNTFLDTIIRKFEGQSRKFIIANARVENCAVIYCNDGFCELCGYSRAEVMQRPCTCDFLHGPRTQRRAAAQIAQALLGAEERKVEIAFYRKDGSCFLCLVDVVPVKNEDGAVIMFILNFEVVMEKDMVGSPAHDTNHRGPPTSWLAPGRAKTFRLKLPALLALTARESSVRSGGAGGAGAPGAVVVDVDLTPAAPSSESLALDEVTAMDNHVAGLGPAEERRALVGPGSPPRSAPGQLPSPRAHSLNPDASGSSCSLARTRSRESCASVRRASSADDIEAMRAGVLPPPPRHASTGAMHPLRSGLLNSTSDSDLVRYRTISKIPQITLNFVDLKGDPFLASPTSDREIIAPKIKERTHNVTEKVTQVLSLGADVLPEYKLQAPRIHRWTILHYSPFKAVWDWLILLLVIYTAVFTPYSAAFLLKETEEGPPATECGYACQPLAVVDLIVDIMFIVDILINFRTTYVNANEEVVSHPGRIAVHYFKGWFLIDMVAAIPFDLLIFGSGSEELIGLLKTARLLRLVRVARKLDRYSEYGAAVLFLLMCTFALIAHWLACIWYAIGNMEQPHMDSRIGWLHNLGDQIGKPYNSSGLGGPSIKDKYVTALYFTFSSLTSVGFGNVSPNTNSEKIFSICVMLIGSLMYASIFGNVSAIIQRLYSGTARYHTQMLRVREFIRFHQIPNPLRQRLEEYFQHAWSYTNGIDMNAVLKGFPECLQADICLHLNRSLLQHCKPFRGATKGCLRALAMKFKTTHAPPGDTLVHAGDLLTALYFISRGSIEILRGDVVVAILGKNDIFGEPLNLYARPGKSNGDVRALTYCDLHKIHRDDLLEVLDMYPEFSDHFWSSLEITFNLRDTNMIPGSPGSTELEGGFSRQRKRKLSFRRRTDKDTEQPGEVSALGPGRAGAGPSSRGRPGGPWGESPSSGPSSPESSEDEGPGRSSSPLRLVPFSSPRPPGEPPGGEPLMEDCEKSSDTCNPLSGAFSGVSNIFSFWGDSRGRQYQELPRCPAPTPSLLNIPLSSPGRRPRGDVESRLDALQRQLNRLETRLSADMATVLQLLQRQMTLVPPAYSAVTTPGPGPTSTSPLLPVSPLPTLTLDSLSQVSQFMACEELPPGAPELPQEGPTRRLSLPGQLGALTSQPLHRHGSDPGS

What does the source list for Fc1ccc(-c2cnc3[nH]cc(-c4ccnc(NC5CC5)n4)c3c2)cc1 [MJ04]?
IC50 ([1]; 1mM ATP): > 10000 nM; Fold of selectivity vs. JAK3 ([1]; JAK1): 95; IC50 ([1]; Km ATP): 193 nM; safety ratio (IC50 against HEK293 normal cell line versus IC50 in A549 cancer cell line) [2]: ~26; IC50 ([2]; Homo sapiens, HEK293, read-out: IC50 HEK-293, MTT, 48 h, normal cell line): > 100000 nM; IC50 [3]: 4470 nM; IC50 ([4]; Km ATP): 3670 nM; Fold of selectivity vs. JAK3 ([4]; PI-3-K γ): 1806; Globally Harmonized Classification System (GHS) category ([5]; Wistar, 14 days): Category-5; ALB ([5]; 2000 mg/kg): 4.37 ± 2.09 g/dL; ALP ([5]; 2000 mg/kg): 380.33 ± 161.30 U/L; ALT ([5]; 2000 mg/kg): 77.33 ± 3.93 U/L; AST ([5]; 2000 mg/kg): 183.63 ± 16.64 U/L; BUN ([5]; 2000 mg/kg): 13.99 ± 2.92 mg/dL; CR ([5]; 2000 mg/kg): 0.71 ± 0.18 mg/dL; Ca ([5]; 2000 mg/kg): 11.90 ± 0.36 mg/dL; GLB ([5]; 2000 mg/kg): 3.21 ± 0.09; Glucose ([5]; 2000 mg/kg): 91.13 ± 17.80 mg/dL; Na ([5]; 2000 mg/kg): 145.57 ± 1.71 mM; P ([5]; 2000 mg/kg): 4.84 ± 1.10 mg/dL; TB ([5]; 2000 mg/kg): 0.11 ± 0.03 mg/dL; TG ([5]; 2000 mg/kg): 75.33 ± 8.33 mg/dL; TP ([5]; 2000 mg/kg): 7.05 ± 0.25 g/dL; Urea ([5]; 2000 mg/kg): 36.57 ± 8.43 mg/dL; Cmax [6]: 480 nM; Tmax [6]: 1 h; IC50 [7]: > 10000 nM; reduction of hERG outward tail current ([8]; 10 μM): 7.1 ± 2%; inhibitory effect on hERG, fold less than that of Tofacitinib ([8]; highest concentration tested (30 μM)): ~ 2.5 fold; IC50 [9]: 2270 nM; IC50 ([10]; 1mM ATP): 28.5 nM; Fold of selectivity vs. JAK3 ([10]; JAK 3): 1; IC50 ([10]; Km ATP (2.5 µM)): 2.03 nM; inhibitory activity against JAK3 in kinase assays and in MTT assays ([10]; structure-activity statement): significant inhibitory activity
